# Assay: Antagonist activity at P2Y12 receptor in human platelet rich plasma assessed as inhibition of ADP-induced platelet aggregation by light transmission aggregometry
row,Compound,IC50
1,CCCCCOC(=O)N1CCN(C(=O)[C@H](CCC(=O)O)NC(=O)c2cc(N3CCC(C)CC3)nc(-c3ccccc3)n2)CC1 [(S)-4-(6-(4-methylpiperidin-1-yl)-2-phenylpyrimidine-4-carboxamido)-5-oxo-5-(4-(pentyloxycarbonyl)piperazin-1-yl)pentanoic acid],> 10000 nM
2,CCCCCOC(=O)N1CCN(C(=O)[C@H](CCC(=O)O)NC(=O)c2cc(OCC3CCN(C)CC3)nc(-c3ccccc3)n2)CC1 [(S)-4-(6-((1-methylpiperidin-4-yl)methoxy)-2-phenylpyrimidine-4-carboxamido)-5-oxo-5-(4-(pentyloxycarbonyl)piperazin-1-yl)pentanoic acid],3600 nM
3,CCCCCOC(=O)N1CCN(C(=O)[C@H](CCC(=O)O)NC(=O)c2cc(SC3CCCCC3)nc(-c3ccccc3)n2)CC1 [(S)-4-(6-(cyclohexylthio)-2-phenylpyrimidine-4-carboxamido)-5-oxo-5-(4-(pentyloxycarbonyl)piperazin-1-yl)pentanoic acid],> 10000 nM
4,CCCCCOC(=O)N1CCN(C(=O)[C@H](CCC(=O)O)NC(=O)c2cc(SC3CCCC3)nc(-c3ccccc3)n2)CC1 [(S)-4-(6-(cyclopentylthio)-2-phenylpyrimidine-4-carboxamido)-5-oxo-5-(4-(pentyloxycarbonyl)piperazin-1-yl)pentanoic acid],> 10000 nM
5,CCCCCOC(=O)N1CCN(C(=O)[C@H](CCC(=O)O)NC(=O)c2cc(SC(C)(C)C)nc(-c3ccccc3)n2)CC1 [(S)-4-(6-(tert-butylthio)-2-phenylpyrimidine-4-carboxamido)-5-oxo-5-(4-(pentyloxycarbonyl)piperazin-1-yl)pentanoic acid],> 10000 nM
6,CCCCCOC(=O)N1CCN(C(=O)[C@H](CCC(=O)O)NC(=O)c2cc(N3CCOCC3)nc(-c3ccccc3)n2)CC1 [(S)-4-(6-morpholino-2-phenylpyrimidine-4-carboxamido)-5-oxo-5-(4-(pentyloxycarbonyl)piperazin-1-yl)pentanoic acid],6300 nM
7,CCCCOC(=O)N1CCN(C(=O)[C@H](CCC(=O)O)NC(=O)c2cc(OC3CCN(C(C)C)CC3)nc(-c3ccccc3)n2)CC1 [(S)-5-(4-(butoxycarbonyl)piperazin-1-yl)-4-(6-(1-isopropylpiperidin-4-yloxy)-2-phenylpyrimidine-4-carboxamido)-5-oxopentanoic acid],1800 nM
8,CCCCOC(=O)N1CCN(C(=O)[C@H](CCC(=O)O)NC(=O)c2cc(OCCN(CC)CC)nc(-c3ccccc3)n2)CC1 [(S)-5-(4-(butoxycarbonyl)piperazin-1-yl)-4-(6-(2-(diethylamino)ethoxy)-2-phenylpyrimidine-4-carboxamido)-5-oxopentanoic acid],3000 nM
9,CCCCOC(=O)N1CCN(C(=O)[C@H](CCC(=O)O)NC(=O)c2cc(OCCOC)nc(-c3ccccc3)n2)CC1 [(S)-5-(4-(butoxycarbonyl)piperazin-1-yl)-4-(6-(2-methoxyethoxy)-2-phenylpyrimidine-4-carboxamido)-5-oxopentanoic acid],2600 nM

# Now from value to compound:
row,IC50,Compound
1,400 nM,CCCCCOC(=O)N1CCN(C(=O)[C@H](CCC(=O)O)NC(=O)c2cc(N3CCC(C(=O)N(CC)CC)CC3)nc(-c3ccccc3)n2)CC1 [(S)-4-(6-(4-(diethylcarbamoyl)piperidin-1-yl)-2-phenylpyrimidine-4-carboxamido)-5-oxo-5-(4-(pentyloxycarbonyl)piperazin-1-yl)pentanoic acid]
2,1600 nM,CCCCCOC(=O)N1CCN(C(=O)[C@H](CCC(=O)O)NC(=O)c2cc(N3CCN(C(=O)N(C)C)CC3)nc(-c3ccccc3)n2)CC1 [(S)-4-(6-(4-(dimethylcarbamoyl)piperazin-1-yl)-2-phenylpyrimidine-4-carboxamido)-5-oxo-5-(4-(pentyloxycarbonyl)piperazin-1-yl)pentanoic acid]
3,370 nM,CCCCCOC(=O)N1CCN(C(=O)[C@H](CCC(=O)O)NC(=O)c2cc(N3CCC(C(=O)N(C)C)CC3)nc(-c3ccccc3)n2)CC1 [(S)-4-(6-(4-(dimethylcarbamoyl)piperidin-1-yl)-2-phenylpyrimidine-4-carboxamido)-5-oxo-5-(4-(pentyloxycarbonyl)piperazin-1-yl)pentanoic acid]
4,930 nM,CCCCCOC(=O)N1CCN(C(=O)[C@H](CCC(=O)O)NC(=O)c2cc(N3CCC(C(=O)NCC)CC3)nc(-c3ccccc3)n2)CC1 [(S)-4-(6-(4-(ethylcarbamoyl)piperidin-1-yl)-2-phenylpyrimidine-4-carboxamido)-5-oxo-5-(4-(pentyloxycarbonyl)piperazin-1-yl)pentanoic acid]
5,2000 nM,CCCCCOC(=O)N1CCN(C(=O)[C@H](CCC(=O)O)NC(=O)c2cc(N3CCC(COC)CC3)nc(-c3ccccc3)n2)CC1 [(S)-4-(6-(4-(methoxymethyl)piperidin-1-yl)-2-phenylpyrimidine-4-carboxamido)-5-oxo-5-(4-(pentyloxycarbonyl)piperazin-1-yl)pentanoic acid]
6,1500 nM,CCCCCOC(=O)N1CCN(C(=O)[C@H](CCC(=O)O)NC(=O)c2cc(N3CCN(C(C)=O)CC3)nc(-c3ccccc3)n2)CC1 [(S)-4-(6-(4-acetylpiperazin-1-yl)-2-phenylpyrimidine-4-carboxamido)-5-oxo-5-(4-(pentyloxycarbonyl)piperazin-1-yl)pentanoic acid]
7,720 nM,CCCCCOC(=O)N1CCN(C(=O)[C@H](CCC(=O)O)NC(=O)c2cc(N3CCC(N)CC3)nc(-c3ccccc3)n2)CC1 [(S)-4-(6-(4-aminopiperidin-1-yl)-2-phenylpyrimidine-4-carboxamido)-5-oxo-5-(4-(pentyloxycarbonyl)piperazin-1-yl)pentanoic acid]
8,940 nM,CCCCCOC(=O)N1CCN(C(=O)[C@H](CCC(=O)O)NC(=O)c2cc(N3CCN(C(N)=O)CC3)nc(-c3ccccc3)n2)CC1 [(S)-4-(6-(4-carbamoylpiperazin-1-yl)-2-phenylpyrimidine-4-carboxamido)-5-oxo-5-(4-(pentyloxycarbonyl)piperazin-1-yl)pentanoic acid]
9,690 nM,CCCCCOC(=O)N1CCN(C(=O)[C@H](CCC(=O)O)NC(=O)c2cc(N3CCC(C(N)=O)CC3)nc(-c3ccccc3)n2)CC1 [(S)-4-(6-(4-carbamoylpiperidin-1-yl)-2-phenylpyrimidine-4-carboxamido)-5-oxo-5-(4-(pentyloxycarbonyl)piperazin-1-yl)pentanoic acid]
10,2700 nM,CCCCCOC(=O)N1CCN(C(=O)[C@H](CCC(=O)O)NC(=O)c2cc(N3CCC(OC)CC3)nc(-c3ccccc3)n2)CC1 [(S)-4-(6-(4-methoxypiperidin-1-yl)-2-phenylpyrimidine-4-carboxamido)-5-oxo-5-(4-(pentyloxycarbonyl)piperazin-1-yl)pentanoic acid]
11,1400 nM,CCCCCOC(=O)N1CCN(C(=O)[C@H](CCC(=O)O)NC(=O)c2cc(N3CCN(C)CC3)nc(-c3ccccc3)n2)CC1 [(S)-4-(6-(4-methylpiperazin-1-yl)-2-phenylpyrimidine-4-carboxamido)-5-oxo-5-(4-(pentyloxycarbonyl)piperazin-1-yl)pentanoic acid]
12,780 nM,CCCCCOC(=O)N1CCN(C(=O)[C@H](CCC(=O)O)NC(=O)c2cc(N3CCC(N4CCOCC4)CC3)nc(-c3ccccc3)n2)CC1 [(S)-4-(6-(4-morpholinopiperidin-1-yl)-2-phenylpyrimidine-4-carboxamido)-5-oxo-5-(4-(pentyloxycarbonyl)piperazin-1-yl)pentanoic acid]

# — BindingDB's records for doi:10.1016/j.bmcl.2009.09.017 (Pfizer, 2009)
